Series [1] concerns NCIH1975 cell line. The experiment in a line: CellTiter-Glo cell viability assay with Bliss synergy, NCIH1975 cells. The series is classed as cell-based. A general note: Cellular ATP, detected with luciferase, serves as a proxy for viable cell number.
Series [2] has as its system BT474 cell line. As to the kind of experiment: CellTiter-Glo cell viability assay with Bliss synergy, BT474 cells. It counts as cell-based.

The source of these data is patent US20230039766A1, “COMBINATION THERAPY” (TURBINE SIMULATED CELL TECHNOLOGIES LTD, priority 2019, published 2023).

Turning to `Cn1ncnc1[C@H]1c2n[nH]c(=O)c3cc(F)cc(c23)N[C@@H]1c1ccc(F)cc1` [Talazoparib], the Viability/εij in series [1] (Talazoparib 0.25 μM monotherapy) came out at 0.597.
In the case of `O=C(c1cc(Cc2n[nH]c(=O)c3ccccc23)ccc1F)N1CCN(C(=O)C2CC2)CC1` [Olaparib], the results for the Viability/εij in series [2] (Olaparib 6.67 μM monotherapy) and in series [1] (Olaparib 6.67 μM monotherapy) were 0.825 and 0.678, respectively.
As to `O=c1[nH]c(=S)[nH]c(N=Cc2ccccc2)c1N=Cc1ccccc1` [SCR7], the Viability/εij in series [2] (SCR7 60 μM monotherapy) was determined as 0.653.
